Results taken from patent US8008525B2, “Receptor function regulating agent” (Takeda Pharmaceutical Company Limited, priority 2003, dated 2011).
pEC50: −log10 of the molar value.

Biological target: T1, human 14273 receptor (Homo sapiens, UniProt Q5NUL3)
T1 construct: expressed in transfected cells
T1 sequence (Q5NUL3 1-361): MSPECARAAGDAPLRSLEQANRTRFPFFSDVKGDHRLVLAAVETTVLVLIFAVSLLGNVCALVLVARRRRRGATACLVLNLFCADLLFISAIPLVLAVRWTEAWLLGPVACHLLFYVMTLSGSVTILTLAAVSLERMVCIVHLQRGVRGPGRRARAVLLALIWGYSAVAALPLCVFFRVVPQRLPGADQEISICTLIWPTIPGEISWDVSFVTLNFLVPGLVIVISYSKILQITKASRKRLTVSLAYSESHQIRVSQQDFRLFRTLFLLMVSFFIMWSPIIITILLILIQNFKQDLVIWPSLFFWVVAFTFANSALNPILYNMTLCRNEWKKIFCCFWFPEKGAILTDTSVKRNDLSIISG
Test: Test Example 1: regulating effect for 14273 receptor function (agonist effect), change in intracellular calcium level by FLIPR
Format: cell-based
Settings: CHO cell line (No. 104) expressing human 14273 receptor, change of fluorescent intensity after 35 seconds
Experimental: CHO cell lines (No. 104) in which a human 14273 receptor has expressed was diluted to contain 3×10^4/100 μl cells, and dispensed in Black walled 96-well plate (Costar) at a density of 100 μl/well, followed by culturing overnight in a CO2 incubator. A change in intracellular calcium level was measured using FLIPR (Molecular Device). The method is described as below. 50 μg of Fluo-3AM (DOJIN) was dissolved in 21 μl of DMSO (DOJIN) and an equal volume of 20% pluronic acid (Molecular Probes) was added thereto, followed by mixing them. The mixture was added to 10.6 ml of the assay buffer [which is prepared by adding 10 ml of a solution, which is prepared by adding 20 ml of 1 M HEPES (pH 7.4, DOJIN) to 1 L of HBSS (Invitrogen), dissolving 710 mg of probenecid (Sigma) in 5 ml of 1 N NaOH, and further adding 5 ml of the above-mentioned HBSS/HEPES solution and mixing it.] supplemented with 105 μl of fetal bovine serum to prepare a fluorescent dye solution. The medium of the cell plate was removed, the fluorescent dye solution was dispensed in 100 μl each per well. The culturing was performed in a CO2 incubator for 1 hour to incorporate the fluorescent dye into the cells. The cells after culturing were washed with the assay buffer. The compounds to be added to the cells were diluted to each concentration with a buffer solution to which CHAPS (DOJIN) was added in 0.015%, and dispensed in a plate for the test sample. Following the pretreatment above, a change in intracellular calcium level after addition of the compound was determined with FLIPR to investigate the agonist effect. An EC50 value was calculated from dose-reaction curve using the change of fluorescent intensity after 35 seconds from the reaction initiation.

Row | Compound | pEC50
1 | O=C(O)CCc1cc(F)c(OC2CCc3ccccc32)c(F)c1 (centres unmarked) [Reference Example 14, 3,5-Difluoro-4-[(2,3-dihydro-1H-inden-1-yl)oxy]benzenepropanoic acid] | ≥ 5.00
2 | COc1ccc(Oc2cccc(COc3c(F)cc(CCC(=O)O)cc3F)c2)cc1 [Example 46, 3-(3,5-difluoro-4-{[3-(4-methoxyphenoxy)benzyl]oxy}phenyl)propanoic acid] | ≥ 5.00
3 | COc1cc(COc2ccc(CCC(=O)O)cc2F)cc(OC)c1 [Example 94, 3-{4-[(3,5-dimethoxybenzyl)oxy]-3-fluorophenyl}propanoic acid] | ≥ 5.00
4 | O=C(O)CCc1ccc(OCc2ccccc2Oc2ccccc2)cc1 [Reference Example 30, 4-[(2-Phenoxyphenyl)methoxy]benzenepropanoic acid] | ≥ 5.00
5 | Cc1ccc2c(c1)C(Oc1ccc(CCC(=O)O)cc1)C(C)(C)C2 (centres unmarked) [Reference Example 50, 4-[(2,3-Dihydro-2,2,6-trimethyl-1H-inden-1-yl)oxy]benzenepropanoic acid] | ≥ 5.00
6 | CC(C)COc1ccccc1COc1c(F)cc(CCC(=O)O)cc1F [Example 32, 3-{3,5-difluoro-4-[(2-isobutoxybenzyl)oxy]phenyl}propanoic acid] | ≥ 5.00
7 | O=C(O)CCc1ccc(OCc2cccc(Oc3ccccc3)c2)c(Cl)c1 [Example 4, 3-Chloro-4-[(3-phenoxyphenyl)methoxy]benzenepropanoic acid] | ≥ 5.00
8 | CCOc1cccc(COc2ccc(CCC(=O)O)cc2F)c1C [Example 208, 3-{4-[(3-ethoxy-2-methylbenzyl)oxy]-3-fluorophenyl}propanoic acid] | ≥ 5.00
9 | Cc1cc(CCC(=O)O)ccc1OCc1cccc(OC(C)C)c1 [Example 178, 3-{4-[(3-isopropoxybenzyl)oxy]-3-methylphenyl}propanoic acid] | ≥ 5.00
10 | O=C(O)CCc1cc(F)c(OCc2ccccc2N2CCCCC2)c(F)c1 [Example 44, 3-{3,5-difluoro-4-[(2-piperidin-1-ylbenzyl)oxy]phenyl}propanoic acid] | ≥ 5.00
11 | Cc1ccc(Oc2cccc(COc3ccc(CCC(=O)O)cc3F)c2)cc1 [Example 171, 3-(3-fluoro-4-{[3-(4-methylphenoxy)benzyl]oxy}phenyl)propanoic acid] | ≥ 5.00
12 | O=C(O)CCc1ccc(OC2CCCc3ccccc32)cc1 (centres unmarked) [Reference Example 20, 4-[(1,2,3,4-Tetrahydronaphthalen-1-yl)oxy]benzenepropanoic acid] | ≥ 5.00
13 | CC1(C)Cc2ccc(Cl)cc2C1Oc1ccc(CCC(=O)O)cc1 (centres unmarked) [Reference Example 47, 4-[(6-Chloro-2,3-dihydro-2,2-dimethyl-1H-inden-1-yl)oxy]benzenepropanoic acid] | ≥ 5.00
14 | O=C(O)CCc1ccc(OCc2cccc3c2OCO3)c(F)c1 [Example 102, 3-[4-(1,3-benzodioxol-4-ylmethoxy)-3-fluorophenyl]propanoic acid] | ≥ 5.00
15 | Cc1ccc(Oc2cccc(COc3c(F)cc(CCC(=O)O)cc3F)c2)cc1 [Example 56, 3-(3,5-difluoro-4-{[3-(4-methylphenoxy)benzyl]oxy}phenyl)propanoic acid] | ≥ 5.00
16 | Cc1cccc(Oc2cccc(COc3ccc(CCC(=O)O)cc3F)c2)c1 [Example 169, 3-(3-fluoro-4-{[3-(3-methylphenoxy)benzyl]oxy}phenyl)propanoic acid] | ≥ 5.00
17 | O=C(O)CCc1cc(F)c(OCc2cccc(Oc3cccs3)c2)c(F)c1 [Example 64, 3-(3,5-difluoro-4-{[3-(2-thienyloxy)benzyl]oxy}phenyl)propanoic acid] | ≥ 5.00
18 | CCOc1cccc(COc2ccc(CCC(=O)O)cc2F)c1 [Example 188, 3-{4-[(3-ethoxybenzyl)oxy]-3-fluorophenyl}propanoic acid] | ≥ 5.00
19 | O=C(O)CCc1ccc(OCc2cccc(Oc3ccccc3)c2)cc1 [Reference Example 8, 4-[(3-Phenoxyphenyl)methoxy]benzenepropanoic acid] | ≥ 5.00
20 | O=C(O)CCc1cc(F)c(OCc2cccc(OC3CCCCC3)c2)c(F)c1 [Example 52, 3-(4-{[3-(cyclohexyloxy)benzyl]oxy}-3,5-difluorophenyl)propanoic acid] | ≥ 5.00
21 | CCOc1cccc(COc2ccc(CCC(=O)O)cc2C)c1 [Example 180, 3-{4-[(3-ethoxybenzyl)oxy]-3-methylphenyl}propanoic acid] | ≥ 5.00
22 | O=C(O)CCc1cc(F)c(OCc2cccc(Oc3ccc(F)cc3)c2)c(F)c1 [Example 54, 3-(3,5-difluoro-4-{[3-(4-fluorophenoxy)benzyl]oxy}phenyl)propanoic acid] | ≥ 5.00

More lines, now with the values ahead:

Row | pEC50 | Compound
23 | ≥ 5.00 | COc1ccc2c(c1)C(Oc1ccc(CCC(=O)O)cc1)C(C)(C)C2 (centres unmarked) [Reference Example 44, 4-[(2,3-Dihydro-6-methoxy-2,2-dimethyl-1H-inden-1-yl)oxy]benzenepropanoic acid]
24 | ≥ 5.00 | O=C(O)CCc1cc(F)c(OCc2cccc(Oc3ccc(Cl)cc3)c2)c(F)c1 [Example 48, 3-(4-{[3-(4-chlorophenoxy)benzyl]oxy}-3,5-difluorophenyl)propanoic acid]
25 | ≥ 5.00 | CC(C)Oc1ccccc1COc1c(F)cc(CCC(=O)O)cc1F [Example 34, 3-{3,5-difluoro-4-[(2-isopropoxybenzyl)oxy]phenyl}propanoic acid]
26 | ≥ 5.00 | CC(C)Oc1cc(COc2ccc(CCC(=O)O)cc2F)cc(Oc2ccccc2)c1 [Example 124, 3-{3-fluoro-4-[(3-isopropoxy-5-phenoxybenzyl)oxy]phenyl}propanoic acid]
27 | ≥ 5.00 | O=C(O)CCc1ccc(OCc2cc(O)cc(Oc3ccccc3)c2)c(F)c1 [Example 118, 3-{3-fluoro-4-[(3-hydroxy-5-phenoxybenzyl)oxy]phenyl}propanoic acid]
28 | ≥ 5.00 | O=C(O)CCc1cc(F)c(OCc2ccccc2OC2CCCC2)c(F)c1 [Example 28, 3-(4-{[2-(cyclopentyloxy)benzyl]oxy}-3,5-difluorophenyl)propanoic acid]
29 | ≥ 5.00 | O=C(O)CCc1cc(F)c(OCc2cccc(Oc3ccsc3)c2)c(F)c1 [Example 62, 3-(3,5-difluoro-4-{[3-(3-thienyloxy)benzyl]oxy}phenyl)propanoic acid]
30 | ≥ 5.00 | O=C(O)CCc1ccc(OCc2ccccc2-c2ccccc2)c(Cl)c1 [Example 24, 4-([1,1′-Biphenyl]-2-ylmethoxy)-3-chlorobenzenepropanoic acid]
31 | ≥ 5.00 | O=C(O)CCc1cc(F)c(OCc2ccccc2OC2CCCCC2)c(F)c1 [Example 36, 3-(4-{[2-(cyclohexyloxy)benzyl]oxy}-3,5-difluorophenyl)propanoic acid]
32 | ≥ 5.00 | O=C(O)CCc1cc(F)c(OCc2cccc(Oc3ccccn3)c2)c(F)c1 [Example 60, 3-(3,5-difluoro-4-{[3-(pyridin-2-yloxy)benzyl]oxy}phenyl)propanoic acid]
33 | ≥ 5.00 | Cc1cc(CCC(=O)O)ccc1OCc1cccc(Oc2ccccc2)c1 [Example 173, 3-(3-methyl-4-[(3-phenoxybenzyl)oxy]phenyl)propanoic acid]
34 | ≥ 5.00 | Cc1ccccc1COc1c(F)cc(CCC(=O)O)cc1F [Example 42, 3-{3,5-difluoro-4-[(2-methylbenzyl)oxy]phenyl}propanoic acid]
35 | ≥ 5.00 | O=C(O)CCc1ccc(OCc2cccc(Oc3ccccc3)c2)c(F)c1 [Example 12, 3-Fluoro-4-[(3-phenoxyphenyl)methoxy]benzenepropanoic acid]
